Consider 11 molecules from patent publication US20250388605A1, “HETEROBIFUNCTIONAL COMPOUNDS AND METHODS OF TREATING DISEASE” (Halda Therapeutics OpCo, Inc., priority 2022, published 2025).

Experiment [1] has as its system T-Rex 293 cell line SC3 cells lacking increased expression of androgen receptor protein. Description: Cellular growth inhibition, T-Rex 293 SC3 cells without doxycycline (no increased androgen receptor expression), CellTiter-Glo. To be noted: T-Rex 293 SC3 cells not exposed to doxycycline (no increased androgen receptor expression), 72 hours. The class given is cell-based. Summed up:
(§1)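 Growth inhibition is measured in an inducible AR-expressing T-Rex 293 clone, SC3, cultured with or without 10 ng/mL doxycycline in hormone-depleted medium. Test compounds are applied for 72 hours. GI50 values derive from CellTiter-Glo 2.0 signal fitted by four-parameter regression.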

A further experiment deals with T47D cells. The experiment can be described thus: Cellular Growth Inhibition Assay for T47D Cells (CellTiter-Glo). As to conditions: 72 hours. The class given is cell-based, human. A digest of the protocol:
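GI50 values derive from four-parameter regression of CellTiter-Glo 2.0 luminescence, using zero luminescence as baseline. Human breast cancer T47D cells (3000/well; DMEM, 10% FBS, 0.2 units/mL insulin) were exposed for 72 h to compound dilutions at 0.5% DMSO, with dosing starting 24 h after seeding.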

The subject of another experiment is VCaP cells. Description: Cellular growth inhibition assay for VCaP cells, CellTiter-Glo. To be noted: 72 hours. It is filed as cell-based, human. Summed up:
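GI50 values come from four-parameter curve fits of luminescence data normalized to a zero baseline. Compound, in medium with 0.5% DMSO, was added one day after plating and left for 72 h before CellTiter-Glo 2.0 addition.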

Experiment [2] deals with T-Rex 293 cell line SC3 cells having increased expression of androgen receptor protein due to exposure to doxycycline. The experiment can be described thus: Cellular growth inhibition, T-Rex 293 SC3 cells with doxycycline (increased androgen receptor expression), CellTiter-Glo. The class given is cell-based. As to conditions: T-Rex 293 SC3 cells with 10 ng/mL doxycycline (increased androgen receptor expression), 72 hours, CellTiter-Glo 2.0. Summed up:
as §1

Regarding `Cn1cc(-c2cc(C(C)(C)O)ccc2Oc2cccc(OC3CCC4(CC3)CCN(c3ncc(C(=O)N[C@H]5C(C)(C)[C@H](Oc6ccc(C#N)c(Cl)c6)C5(C)C)cn3)CC4)c2)c2cc[nH]c2c1=O` [Compound I-314], the GI50 in experiment [1] is more than 3000 nM; in the experiment with T47D cells it was 500 to 1500 nM; in the experiment with VCaP cells it was less than 500 nM; in experiment [2], less than 500 nM.
Consider `Cn1cc(-c2cc(C(C)(C)O)ccc2Oc2ccc(CCOC3CCN(c4ncc(C(=O)N[C@H]5C(C)(C)[C@H](Oc6ccc(C#N)c(Cl)c6)C5(C)C)cn4)CC3)cn2)c2cc[nH]c2c1=O` [Compound I-315], for which the GI50 is more than 3000 nM in experiment [1], 500 to 1500 nM in the experiment on T47D cells (Homo sapiens), less than 500 nM with VCaP cells (Homo sapiens) and less than 500 nM in experiment [2].
Turning to `Cn1cc(-c2cc(C(C)(C)O)ccc2Oc2ccc(N3CC(CC4CN(c5ccc(C(=O)N[C@H]6C(C)(C)[C@H](Oc7ccc(C#N)c(Cl)c7)C6(C)C)cn5)C4)C3)cc2)c2cc[nH]c2c1=O` [Compound I-316], the GI50 was less than 500 nM in experiment [1], 500 to 1500 nM with T47D cells (Homo sapiens), less than 500 nM in the experiment with VCaP cells (Homo sapiens) and less than 500 nM in experiment [2].
On to `Cn1cc(-c2cc(C(C)(C)O)ccc2Oc2cccc(CC3CCC4(CC3)CCN(c3ncc(C(=O)N[C@H]5C(C)(C)[C@H](Oc6ccc(C#N)c(Cl)c6)C5(C)C)cn3)CC4)c2)c2cc[nH]c2c1=O` [Compound I-318], for which the GI50 in experiment [1] was more than 3000 nM; in the experiment on T47D cells, less than 500 nM; in the experiment with VCaP cells, more than 3000 nM; in experiment [2] it was less than 500 nM.
Consider `Cn1cc(-c2cc(C(C)(C)O)ccc2Oc2ccc(N3CC(CC4CN(c5ccc(C(=O)N[C@H]6C(C)(C)[C@H](Oc7ccc(C#N)c(Cl)c7)C6(C)C)nn5)C4)C3)cc2)c2cc[nH]c2c1=O` [Compound I-319], for which the GI50 (in experiment [1]; with T47D cells (Homo sapiens); with VCaP cells (Homo sapiens); in experiment [2]) was less than 500 nM throughout.
For `Cn1cc(-c2cc(C(C)(C)O)ccc2Oc2cccc(OC3CC4(C3)CN(c3ncc(C(=O)N[C@H]5C(C)(C)[C@H](Oc6ccc(C#N)c(Cl)c6)C5(C)C)cn3)C4)c2)c2cc[nH]c2c1=O` [Compound I-320], the 50% growth inhibitory concentration (GI50) (in experiment [1]; in the experiment on T47D cells; in the experiment with VCaP cells; in experiment [2]) was less than 500 nM throughout.
As for `Cn1cc(-c2cc(C(C)(C)O)ccc2Oc2cccc(CC3CC4(C3)CN(c3ncc(C(=O)N[C@H]5C(C)(C)[C@H](Oc6ccc(C#N)c(Cl)c6)C5(C)C)cn3)C4)c2)c2cc[nH]c2c1=O` [Compound I-321], the 50% growth inhibitory concentration (GI50) (in experiment [1]; with T47D cells; with VCaP cells; in experiment [2]) was less than 500 nM in each case.
Regarding `Cn1cc(-c2cc(C(C)(C)O)ccc2Oc2ccc(N3CC(CC4CN(c5cnc(C(=O)N[C@H]6C(C)(C)[C@H](Oc7ccc(C#N)c(Cl)c7)C6(C)C)nc5)C4)C3)cc2)c2cc[nH]c2c1=O` [Compound I-323], the 50% growth inhibitory concentration (GI50) in experiment [1] was 500 to 1500 nM; with T47D cells (Homo sapiens) it was less than 500 nM; in the experiment on VCaP cells (Homo sapiens), less than 500 nM; in experiment [2], 500 to 1500 nM.
As for `Cn1cc(-c2cc(C(C)(C)O)ccc2Oc2cccc(N3CCC(CC4CCN(c5ncc(C(=O)N[C@H]6C(C)(C)[C@H](Oc7ccc(C#N)c(Cl)c7)C6(C)C)cn5)CC4)CC3)c2)c2cc[nH]c2c1=O` [Compound I-325], the GI50 was more than 3000 nM in experiment [1], less than 500 nM in the experiment on T47D cells, more than 3000 nM in the experiment on VCaP cells and less than 500 nM in experiment [2].
With `Cn1cc(-c2cc(C(C)(C)O)ccc2Oc2ccc(OC3CC4(C3)CC3(CCN(c5ncc(C(=O)N[C@H]6C(C)(C)[C@H](Oc7ccc(C#N)c(Cl)c7)C6(C)C)cn5)CC3)C4)cc2)c2cc[nH]c2c1=O` [Compound I-326], the GI50 in experiment [1] is more than 3000 nM; with T47D cells (Homo sapiens), less than 500 nM; in the experiment on VCaP cells (Homo sapiens) it was less than 500 nM; in experiment [2], less than 500 nM.
`Cn1cc(-c2cc(C(C)(C)O)ccc2Oc2ccc(CN3CC4(C3)CN(c3ncc(C(=O)N[C@H]5C(C)(C)[C@H](Oc6ccc(C#N)c(Cl)c6)C5(C)C)cn3)C4)cc2)c2cc[nH]c2c1=O` [Compound I-327]: the GI50 (in experiment [1]; in the experiment with T47D cells (Homo sapiens); with VCaP cells (Homo sapiens); in experiment [2]) was less than 500 nM each time.
